Data reported in US7071220B2, “N-substituted benzothiophenesulfonamide derivatives” (Toa Eiyo Ltd., priority 2000, dated 2006).
Where a chain is given by its changes, count along the chain named. Where two headings read alike, the source gives them in different places.

Experiments:
[1] = tested on: rat cecum-scraped adhesion model; experiment: Investigation in rat cecum-scraped adhesion model; type: in vivo; settings: 2 mL PBS solution 10^−5 mol/L intraperitoneally; 1 week after operation; control 63.6%
Experimental: Investigation in Rat Cecum-scraped Adhesion Model
Six-week-old SD rats were subjected to midline incision at lower abdominal region under pentobarbital anesthetization (70 mg/kg, intramuscular injection), and the cecum was taken out of the incised part. Two parts of serous membrane of the cecum (about 2 cm^2 each) were rubbed with a cotton swab a hundred times until petechial hemorrhage occurs, followed by dropwise addition of 100 μL of ethanol. The cecum was again set in abdominal cavity, and then, 2 mL of a phosphate buffered saline (hereinafter, abbreviated as PBS, pH 7.4) solution of a test compound (Compound 24 or 70) was added dropwise intraperitoneally, and then the incised part was sutured. The concentration of each test compound solution was 10^−5 mol/L in a control group, PBS alone was added dropwise, followed by a similar treatment. Each group had 11 or 12 rats. After 1 week from the operation, the animals were slaughtered, the abdominal part was re-incised and an adhesion state of the cecum was evaluated according to adhesion scores using the adhesion intensity and adhesion area as indexes. The score values were determined according to the following 5-grade scores. In this connection, adhered region (%) was determined as percentage of total area of the adhered parts relative to the area of the rubbed regions. […]

Cathepsin G = molecular target: T1, Cathepsin G (Homo sapiens, UniProt P08311); experiment: Measurement of cathepsin G inhibitory activity (Suc-Ala-Ala-Pro-Phe-pNA); type: biochemical; settings: cathepsin G from human purulent sputum; 60 minutes at 37° C.
T1 construct: the product of Elastin Products Company, Inc. derived from human purulent sputum was used; purchased Elastin Products Company, Inc; host or cells: human purulent sputum
T1 sequence (P08311 21-244): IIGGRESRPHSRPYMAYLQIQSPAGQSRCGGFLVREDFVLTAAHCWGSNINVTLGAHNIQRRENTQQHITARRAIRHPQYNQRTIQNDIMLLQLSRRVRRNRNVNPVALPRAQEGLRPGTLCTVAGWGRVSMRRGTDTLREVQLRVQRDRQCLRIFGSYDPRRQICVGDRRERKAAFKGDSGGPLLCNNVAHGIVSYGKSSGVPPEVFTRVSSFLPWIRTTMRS
Experimental: (§1) Measurement of Cathepsin G Inhibitory Activity and Chymotrypsin Inhibitory Activity
(§2) Each activity of cathepsin G or chymotrypsin was measured by determining the amount of free p-nitroaniline quantitatively using a synthetic substrate that is colorless and yields colored product upon hydrolysis, by means of a spectrophotometer. Chymotrypsin Type I-S derived from bovine pancreas was purchased from SIGMA. As cathepsin G, the product of Elastin Products Company, Inc. derived from human purulent sputum was used. Suc-Ala-Ala-Pro-Phe-pNA (manufactured by SIGMA) was used as the synthetic substrate. An inhibitory effect of a compound on each enzyme was determined by the following method.
(§3) Each test compound (5 μmol) was weighed in a test tube and dissolved into 2 mL of DMSO. […] Then, 200 μL of 1 mmol/L substrate solution was added to initiate en enzymatic reaction under a temperature of 37° C.
(§4) Based on each inhibitory ratio, IC50 value was calculated.

Chymotrypsin = molecular target: T2, Chymotrypsin (Bos taurus, UniProt P00766); experiment: Measurement of chymotrypsin inhibitory activity (Suc-Ala-Ala-Pro-Phe-pNA); type: biochemical; settings: Chymotrypsin Type I-S from bovine pancreas; 30 minutes at 37° C.
T2 construct: Chymotrypsin Type I-S derived from bovine pancreas; purchased SIGMA Type I-S; host or cells: bovine pancreas
Experimental: as §1, §2, §3, §4

Simian chymase = molecular target: T3, Simian chymase (Macaca mulatta, UniProt F6SAJ2); experiment: Measurement of inhibitory activity of simian chymase (Ang I substrate, His-Leu/OPT fluorescence); type: biochemical, rhesus monkey
T3 sequence (F6SAJ2 22-247 limits assumed): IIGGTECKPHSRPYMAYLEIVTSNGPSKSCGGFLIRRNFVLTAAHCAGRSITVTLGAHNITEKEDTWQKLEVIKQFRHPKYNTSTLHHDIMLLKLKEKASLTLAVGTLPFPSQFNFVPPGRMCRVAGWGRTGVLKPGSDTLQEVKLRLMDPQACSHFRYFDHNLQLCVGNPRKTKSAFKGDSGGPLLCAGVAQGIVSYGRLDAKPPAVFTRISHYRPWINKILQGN
Experimental: That is, the activity was measured by reacting free His-Leu formed together with Ang II with o-phthalaldehyde (hereinafter, abbreviated as OPT) to prepare a fluorescent derivative and determining the amount quantitatively by means of a fluorophotometer.
First, 3.6 μmol of each test compound was weighed in a test tube and was dissolved into 3 mL of DMSO. The DMSO solution was diluted 1000-fold with 20 mmol/L Tris-hydrochloric acid buffer solution (pH 8.0) containing 0.01% Triton X-100 and 0.5 mol/L potassium chloride to prepare 1.2×10^−6 mol/L solution, which was successively diluted with the buffer solution to prepare test sample solutions having concentrations of 1.2×10^−6 mol/L to 1.2×10^−9 mol/L. To 500 μL of the test sample solution of each concentration or buffer solution was added 50 μL of an enzyme solution, followed by 10 minutes of pre-incubation at 37° C. Then, 50 μL of 0.1 mmol/L Ang I solution was added to initiate a reaction. Human angiotensin I (manufactured by SIGMA) was employed as Ang I. The enzyme solution to be used for the reaction was adjusted so as to hydrolyze about 60% of substrate under the conditions, and the reaction wherein a buffer solution containing no enzyme was carried out as a blind test. […] Thereafter, the reaction mixture was centrifuged at 4° C. at 3,000 rpm for 10 minutes and 2 mL of 2 mol/L sodium hydroxide and 1 mL of methanol were added to 1 mL of the resulting supernatant. […] The measurement was repeated twice for each sample and blind test. The fluorescence intensity obtained by subtracting the average value at blind test from the average value thereof was determined as chymase activity.
In this regard, an enzymatic reaction using a buffer solution instead of the test sample solution was carried out as a control, and inhibitory ratio of chymase activity was determined as percentage by dividing the difference of subtraction of the activity at the addition of the test compound from the chymase activity at the control by the chymase activity at the control.

Human chymase = molecular target: T4, Human chymase (Homo sapiens, UniProt P23946); experiment: Measurement of inhibitory activity of human chymase (Ang I substrate, His-Leu/OPT fluorescence)
T4 sequence (P23946 22-247): T3 sequence (F6SAJ2 22-247 limits assumed) with S29F, K63E, Y159D, L201S, K221Q, G225A

[2] = tested on: rat monocrotaline-induced pulmonary hypertension model; experiment: Test in rat monocrotaline-induced pulmonary hypertension model; type: in vivo
Experimental: Test in Rat Monocrotaline-Induced Pulmonary Hypertension Model
Into 1.2 mL of 1 mol/L hydrochloric acid was dissolved 200 mg of monocrotaline, followed by addition of 5 mL of distilled water. The solution was neutralized with 0.5 mol/L sodium hydroxide, and further diluted with distilled water so as to be 10 mL (20 mg/mL). Moreover, a solution containing the solvent alone without monocrotaline was prepared as Solvent A. A test compound was suspended into olive oil (25 mg/mL). Furthermore, a solution containing no test compound but the solvent alone was prepared as Solvent B.
Monocrotaline (60 mg/kg-body weight) was administrated subcutaneously at the posterior region of neck of five 5-week-old SD male rats. From 3 days before monocrotaline administration to 20 days after the administration, a test compound was administered intraperitoneally twice a day at a dose of 50 mg/kg-body weight. On the next day of the final administration of the test compound, the rats were fixed supinely under anesthetization with intraperitoneal administration of sodium pentobarbital. And then blood pressure was measured with cannula inserted from left carotid artery and systolic pressure at right ventricle was measured with cannula inserted from right […] and introduced into right ventricle, via a pressure transducer by means of a pressure-strain gauge. After slaughter of the animals, the heart was removed and weight of right ventricle, weight of left ventricle and septum, and diameter and medial thickness of pulmonary artery having a diameter within a range of 50 to 150 μm were measured. Moreover, from these measured values, a weight ratio of right ventricle/(left ventricle+septum) and medial thickening ratio {(medial thickness/outer diameter of the blood vessel)×100} were determined. In this regard, a group wherein the rats to which monocrotaline was administered was treated with Solvent B alone in an amount of 2 mL/kg-body weight in the same administration schedule as above was named “Solvent-administered group”. In addition, a group wherein the rats to which Solvent A was administered in an amount of 3 mL/kg-body weight was treated with Solvent B in an amount of 2 mL/kg-body weight was named “Monocrotaline-untreated group”.

Stability in rat plasma = type: in vitro ADME; settings: 10 μg/mL, 37° C., 60 minutes, HPLC
Experimental: Stability of the compounds of the invention in rat plasma was investigated.
Male SD rats (7-week-old) were anesthetized with ether under over-night fasting conditions and, after an abdominal part was incised, blood was collected from aorta abdominalis using a heparinized disposable plastic syringe. The blood was centrifuged under cooling to collect a supernatant plasma. The collected plasma was stored under freezing at −30° C. and was melted before use. After a test compound was dissolved in DMSO, the solution was added to 200 μL of the plasma so as to be 10 μg/mL, followed by incubation at 37° C. After 60 minutes, the mixture was acidified by adding 200 μL of 0.1 mol/L hydrochloric acid, and then extracted twice with 2 mL of ethyl acetate. The resulting organic layer was evaporated to dryness under a nitrogen gas flow and the residue was dissolved into 200 μL of acetonitrile to prepare a sample solution. On the other hand, the test compound was dissolved into 1% acetonitrile solution of DMSO so as to be 10 μg/mL as a control solution. The sample solution and control solution was investigated by high performance liquid chromatography (hereinafter, abbreviated as HPLC). Residual ratio (%) was determined as percentage by dividing the peak area of the sample solution by the peak area of the control solution.
Column: Waters Nova Pack C18 (inner diameter: 3.9 mm, length: 150 mm)
Mobile phase A: acetonitrile/water=10/90
Mobile phase B: acetonitrile/methanol=50/50
Eluent: Mobile phase A-mobile phase B (100/0 to 0/100, linear gradient, 50 minutes)
Amount of injection: 50 μL

hamster adhesion model = experiment: Investigation in hamster adhesion model; type: in vivo; settings: 1 mL saline solution 10^−4 mol/L intraperitoneally; 4 weeks after operation; 5-grade score 0-4; control 2.0; p<0.05
Experimental: Investigation in Hamster Adhesion Model
Five-week-old female hamster (10 hamsters per each group) was anesthetized by administering intraperitoneally pentobarbital sodium (50 mg/kg) and, after midline incision at abdominal region, the uterus was rubbed with a cotton swab. Thereafter, 1 mL of saline solution of a test compound (Compound 24: 10^−4 mol/L) was added dropwise intraperitoneally, and then the incised part was sutured. On the other hand, as a control, saline alone was added dropwise, followed by a similar treatment.
After 4 weeks from the operation, the animals were slaughtered, the abdominal part was exposed and adhesion was investigated. The adhesion was judged using the following 5-grade scoring system and the data were analyzed according to Mann-Whitney U test.
(§5) 1: Very weak adhesion (film-like adhesion easily releasable)
(§6) 2: Limited adhesion (strong adhesion difficult to release at only one point)
(§7) 3: Wide-range adhesion (strong adhesion difficult to release at several points)
(§8) 4: Very strong adhesion (very strong adhesion impossible to release)

[3] = tested on: canine eye postoperative adhesion model; experiment: Investigation in canine eye postoperative adhesion model; type: in vivo, beagle dog; settings: sponge with saline solution 10^−4 mol/L for 3 minutes; 7 days after operation; 5-grade score 0-4; control 3.67; p<0.05
Experimental: Investigation in Canine Eye Postoperative Adhesion Model
A beagle dog was anesthetized and each conjunctiva of both eyes thereof was peeled in a size of 10 mm×5 mm under a stereomicroscope. At that time, Tenon was left at conjunctival side and was not left at scleral side. After a sponge immersed in a saline solution of a test compound (Compound 70) was placed at the incised part for 3 minutes, the incised part was put in one stitch with 10-0 nylon thread. The concentration of the test compound solution was 10^−4 mol/L and a saline was used in a control group (6 dogs per each group).
After 7 days from the operation, the animals were slaughtered, the eyeballs were taken out and adhesion was investigated. After the thread used at the stitching in the model preparation was cut, evaluation was carried out by pulling the conjunctiva part with tweezers and scoring the adhesion state. The score values were determined according to the following 5-grade scores, and Mann-Whitney U test was used for analyzing the data.
as §5, §6, §7, §8

[4] = monocrotaline-treated SD male rats, 50 mg/kg intraperitoneally twice a day, 3 days before to 20 days after monocrotaline
[5] = chymase from heart of rhesus monkey, 120 minutes at 37° C., read-out: Simian chymase IC50 value

SMILES	total percentage of scores 3 and 4 showing severe adhesions [1] [%]	IC50 (Cathepsin G) [nM]	IC50 (Chymotrypsin) [nM]	IC50 (Simian chymase) [nM]	IC50 (Human chymase; read-out: Human cymase IC50 value, human chymase from silkworms infected with baculovirus, 120 minutes at 37° C.) [nM]	Medial thickening ratio ([2]; (medial thickness/outer diameter of the blood vessel)×100, pulmonary artery 50 to 150 μm, 50 mg/kg intraperitoneally twice a day)	thickening of medial muscular layer (increase of medial thickening ratio) ([2]; monocrotaline-induced pulmonary hypertension, result in words)	Weight ratio of right ventricle/(left ventricle + septum) ([2]; monocrotaline-treated SD male rats, 50 mg/kg intraperitoneally twice a day)	Average blood pressure [2, 4] [mmHg]	Systolic pressure at right ventricle [2, 4]	Weight of right ventricle [2, 4] [mg]	IC50 (Simian chymase; [5]) [nM]	Residual ratio in rat plasma (Stability in rat plasma) [%]	IC50 (Human chymase) [nM]	melting point [°C]	average adhesion score (hamster adhesion model)	average adhesion score [3]
COC(=O)c1ccc(NS(=O)(=O)c2sc3ccc(Cl)cc3c2C)c(OC)c1 [Compound 7, Methyl 4-(5-chloro-3-methylbenzo[b]thiophene-2-sulfonylamino)-3-methoxybenzoate]	33.3	> 1000	> 1000	–	–	–	–	–	–	–	–	–	–	–	–	–	–
COC(=O)c1ccc(NS(=O)(=O)c2sc3ccc(F)cc3c2C)c(S(C)(=O)=O)c1 [Compound 17, methyl 4-(5-fluoro-3-methylbenzo[b]thiophene-2-sulfonylamino)-3-methanesulfonylbenzoate]	–	> 10000	> 10000	9	56	10.55 ± 1.80	suppressed	0.39 ± 0.04	111 ± 19	57 ± 11	233 ± 24	–	–	–	–	–	–
Cc1c(S(=O)(=O)Nc2ccc(-c3nc(C(=O)O)co3)cc2S(C)(=O)=O)sc2ccc(F)cc12 [Compound 24, 2-[4-(5-fluoro-3-methylbenzo[b]thiophene-2-sulfonylamino)-3-methanesulfonylphenyl]oxazole-4-carboxylic acid]	41.7	> 10000	> 10000	–	–	–	–	–	–	–	–	2	100	37	207 to 208	0.9	–
Cc1c(S(=O)(=O)Nc2ccc(-c3nc(C(=O)O)cs3)cc2S(C)(=O)=O)sc2ccc(F)cc12 [Compound 70, 2-[4-(5-fluoro-3-methylbenzo[b]thiophene-2-sulfonylamino)-3-methanesulfonylphenyl]thiazole-4-carboxylic Acid]	–	> 10000	> 10000	–	–	–	–	–	–	–	–	0.4	–	7	–	–	2.67
